Each structure is given as a SMILES string.

Experiment [1] addresses Cyclin-dependent kinase 5 (Homo sapiens) (UniProt Q00535). Put plainly: Inhibition of CDK5 (unknown origin) assessed as residual activity at 1000 nM by KINOMEscan analysis relative to control.
For experiment [2], the target named is Serine/threonine-protein kinase NIM1 (Homo sapiens) (UniProt Q8IY84). Put plainly: Inhibition of NIM1 (unknown origin) assessed as residual activity at 1000 nM by KINOMEscan analysis relative to control.
Sequence of Serine/threonine-protein kinase NIM1 (Homo sapiens) (Q8IY84 whole entry): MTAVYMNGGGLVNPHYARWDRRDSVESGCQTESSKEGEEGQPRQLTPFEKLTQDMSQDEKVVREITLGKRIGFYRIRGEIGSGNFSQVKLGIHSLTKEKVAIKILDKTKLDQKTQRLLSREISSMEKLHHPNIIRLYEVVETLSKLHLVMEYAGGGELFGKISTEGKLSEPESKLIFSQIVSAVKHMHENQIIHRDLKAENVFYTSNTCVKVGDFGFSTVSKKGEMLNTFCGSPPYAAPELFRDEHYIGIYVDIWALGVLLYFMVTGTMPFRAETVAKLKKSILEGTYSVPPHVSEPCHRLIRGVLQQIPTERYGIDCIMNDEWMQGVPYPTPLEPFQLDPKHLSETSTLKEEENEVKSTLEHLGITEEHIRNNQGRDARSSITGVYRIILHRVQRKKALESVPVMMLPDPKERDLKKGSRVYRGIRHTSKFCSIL
Experiment [3] concerns the target Serine/threonine-protein kinase 16 (Homo sapiens) (UniProt O75716). Put plainly: Inhibition of STK16 (unknown origin) assessed as residual activity at 1000 nM by KINOMEscan analysis relative to control.
Experiment [4] deals with Serine/threonine-protein kinase pim-2 (Homo sapiens) (UniProt Q9P1W9). Put plainly: Inhibition of PIM2 (unknown origin) assessed as residual activity at 1000 nM by KINOMEscan analysis relative to control.
Sequence of Serine/threonine-protein kinase pim-2 (Homo sapiens) (Q9P1W9 whole entry, looked up): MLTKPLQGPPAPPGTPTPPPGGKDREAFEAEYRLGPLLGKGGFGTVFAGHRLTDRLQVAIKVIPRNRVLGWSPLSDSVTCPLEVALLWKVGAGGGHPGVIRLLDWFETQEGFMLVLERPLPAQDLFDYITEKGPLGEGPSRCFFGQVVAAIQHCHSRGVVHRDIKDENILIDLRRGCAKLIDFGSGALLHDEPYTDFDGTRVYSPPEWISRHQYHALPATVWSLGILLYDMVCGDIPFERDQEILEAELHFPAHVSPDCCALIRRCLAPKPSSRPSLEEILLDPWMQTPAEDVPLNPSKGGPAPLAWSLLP
In experiment [5] the target is RAC-gamma serine/threonine-protein kinase (Homo sapiens) (UniProt Q9Y243). Nature of the experiment: Inhibition of AKT3 (unknown origin) assessed as residual activity at 1000 nM by KINOMEscan analysis relative to control.
Sequence of RAC-gamma serine/threonine-protein kinase (Homo sapiens) (Q9Y243 whole entry, canonical isoform): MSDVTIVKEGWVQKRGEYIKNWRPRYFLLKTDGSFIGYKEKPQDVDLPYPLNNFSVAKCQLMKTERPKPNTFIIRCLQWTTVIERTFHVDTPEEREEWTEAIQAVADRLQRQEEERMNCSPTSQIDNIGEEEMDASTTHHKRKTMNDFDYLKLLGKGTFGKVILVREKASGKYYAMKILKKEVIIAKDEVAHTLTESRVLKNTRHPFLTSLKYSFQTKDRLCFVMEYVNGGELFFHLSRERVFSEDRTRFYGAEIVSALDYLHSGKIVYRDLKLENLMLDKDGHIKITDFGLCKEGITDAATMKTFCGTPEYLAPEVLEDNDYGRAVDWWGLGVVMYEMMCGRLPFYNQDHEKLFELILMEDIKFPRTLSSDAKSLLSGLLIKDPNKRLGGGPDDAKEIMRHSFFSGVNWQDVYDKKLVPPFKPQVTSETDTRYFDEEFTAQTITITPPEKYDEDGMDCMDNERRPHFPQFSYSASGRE
The target in experiment [6] is Phosphatidylinositol 4,5-bisphosphate 3-kinase catalytic subunit gamma isoform (Homo sapiens) (UniProt P48736). Put plainly: Inhibition of PIK3CG (unknown origin) assessed as residual activity at 1000 nM by KINOMEscan analysis relative to control.
Sequence of Phosphatidylinositol 4,5-bisphosphate 3-kinase catalytic subunit gamma isoform (Homo sapiens) (P48736 whole entry, looked up, canonical isoform): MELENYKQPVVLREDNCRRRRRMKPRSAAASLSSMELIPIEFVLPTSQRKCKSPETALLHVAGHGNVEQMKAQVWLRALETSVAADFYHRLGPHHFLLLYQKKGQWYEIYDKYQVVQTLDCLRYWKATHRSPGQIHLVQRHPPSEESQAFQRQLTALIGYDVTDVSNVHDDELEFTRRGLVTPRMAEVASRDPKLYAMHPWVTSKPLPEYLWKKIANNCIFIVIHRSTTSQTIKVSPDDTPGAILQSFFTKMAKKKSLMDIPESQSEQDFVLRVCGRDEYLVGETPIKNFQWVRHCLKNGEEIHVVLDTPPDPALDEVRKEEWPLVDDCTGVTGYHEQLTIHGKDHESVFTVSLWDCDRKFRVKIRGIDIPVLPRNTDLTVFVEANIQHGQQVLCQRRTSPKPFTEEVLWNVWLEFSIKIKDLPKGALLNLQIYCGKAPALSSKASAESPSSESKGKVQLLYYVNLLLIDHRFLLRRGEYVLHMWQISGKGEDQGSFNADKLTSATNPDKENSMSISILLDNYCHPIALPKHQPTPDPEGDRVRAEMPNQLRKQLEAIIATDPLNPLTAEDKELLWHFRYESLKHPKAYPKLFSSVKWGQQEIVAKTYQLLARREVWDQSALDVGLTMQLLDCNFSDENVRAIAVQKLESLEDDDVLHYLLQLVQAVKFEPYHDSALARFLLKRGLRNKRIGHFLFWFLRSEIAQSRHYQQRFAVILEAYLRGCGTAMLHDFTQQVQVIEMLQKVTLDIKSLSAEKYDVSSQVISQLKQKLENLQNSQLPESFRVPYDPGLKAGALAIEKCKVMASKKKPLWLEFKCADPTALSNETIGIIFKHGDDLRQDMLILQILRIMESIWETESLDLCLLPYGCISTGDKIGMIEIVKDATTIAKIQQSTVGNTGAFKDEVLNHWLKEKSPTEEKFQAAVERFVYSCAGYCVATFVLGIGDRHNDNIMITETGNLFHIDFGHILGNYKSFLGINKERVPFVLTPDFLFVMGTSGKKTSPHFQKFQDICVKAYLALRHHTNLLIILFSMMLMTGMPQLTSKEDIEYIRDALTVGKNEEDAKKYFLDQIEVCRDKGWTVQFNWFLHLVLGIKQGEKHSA
For experiment [7], the target named is T1, Serine/threonine-protein kinase Nek3 (Homo sapiens) (UniProt P51956).
T1 sequence (whole entry): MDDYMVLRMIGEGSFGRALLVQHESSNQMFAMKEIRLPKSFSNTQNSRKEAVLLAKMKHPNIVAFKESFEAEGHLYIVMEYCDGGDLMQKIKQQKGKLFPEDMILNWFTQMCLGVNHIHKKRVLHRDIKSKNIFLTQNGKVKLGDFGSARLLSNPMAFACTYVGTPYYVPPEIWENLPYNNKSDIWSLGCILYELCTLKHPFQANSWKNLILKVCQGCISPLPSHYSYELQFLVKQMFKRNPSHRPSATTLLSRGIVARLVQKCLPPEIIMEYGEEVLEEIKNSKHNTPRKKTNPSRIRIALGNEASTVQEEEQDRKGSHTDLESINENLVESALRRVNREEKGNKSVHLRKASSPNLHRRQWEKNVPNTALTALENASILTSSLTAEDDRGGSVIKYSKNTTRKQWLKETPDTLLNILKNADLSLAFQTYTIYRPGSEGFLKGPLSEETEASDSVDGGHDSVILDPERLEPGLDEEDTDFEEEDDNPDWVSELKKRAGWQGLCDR
Nature of the experiment: Inhibition of NEK3 (unknown origin) assessed as residual activity at 1000 nM by KINOMEscan analysis relative to control.

Experiment [8] deals with T2, NUAK family SNF1-like kinase 2 (Homo sapiens) (UniProt Q9H093).
T2 sequence (whole entry): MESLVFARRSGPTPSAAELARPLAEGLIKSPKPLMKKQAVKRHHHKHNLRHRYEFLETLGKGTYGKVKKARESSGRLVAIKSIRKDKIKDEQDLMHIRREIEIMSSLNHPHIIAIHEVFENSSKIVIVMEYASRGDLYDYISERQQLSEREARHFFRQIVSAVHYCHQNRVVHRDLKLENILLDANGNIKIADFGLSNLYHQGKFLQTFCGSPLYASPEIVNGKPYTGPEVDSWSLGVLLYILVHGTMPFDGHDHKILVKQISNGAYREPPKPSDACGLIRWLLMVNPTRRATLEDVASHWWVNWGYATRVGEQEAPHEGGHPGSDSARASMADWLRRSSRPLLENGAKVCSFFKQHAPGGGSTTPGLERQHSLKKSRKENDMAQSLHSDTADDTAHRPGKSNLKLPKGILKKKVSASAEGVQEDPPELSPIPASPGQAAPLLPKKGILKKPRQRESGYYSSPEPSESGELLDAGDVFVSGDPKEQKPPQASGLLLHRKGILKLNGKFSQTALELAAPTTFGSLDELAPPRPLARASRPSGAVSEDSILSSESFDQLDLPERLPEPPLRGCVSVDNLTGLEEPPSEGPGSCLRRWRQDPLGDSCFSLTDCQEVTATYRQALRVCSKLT
Put plainly: Inhibition of SNARK (unknown origin) assessed as residual activity at 1000 nM by KINOMEscan analysis relative to control.

The target in experiment [9] is T3, Serine/threonine-protein kinase tousled-like 1 (Homo sapiens) (UniProt Q9UKI8).
T3 sequence (whole entry): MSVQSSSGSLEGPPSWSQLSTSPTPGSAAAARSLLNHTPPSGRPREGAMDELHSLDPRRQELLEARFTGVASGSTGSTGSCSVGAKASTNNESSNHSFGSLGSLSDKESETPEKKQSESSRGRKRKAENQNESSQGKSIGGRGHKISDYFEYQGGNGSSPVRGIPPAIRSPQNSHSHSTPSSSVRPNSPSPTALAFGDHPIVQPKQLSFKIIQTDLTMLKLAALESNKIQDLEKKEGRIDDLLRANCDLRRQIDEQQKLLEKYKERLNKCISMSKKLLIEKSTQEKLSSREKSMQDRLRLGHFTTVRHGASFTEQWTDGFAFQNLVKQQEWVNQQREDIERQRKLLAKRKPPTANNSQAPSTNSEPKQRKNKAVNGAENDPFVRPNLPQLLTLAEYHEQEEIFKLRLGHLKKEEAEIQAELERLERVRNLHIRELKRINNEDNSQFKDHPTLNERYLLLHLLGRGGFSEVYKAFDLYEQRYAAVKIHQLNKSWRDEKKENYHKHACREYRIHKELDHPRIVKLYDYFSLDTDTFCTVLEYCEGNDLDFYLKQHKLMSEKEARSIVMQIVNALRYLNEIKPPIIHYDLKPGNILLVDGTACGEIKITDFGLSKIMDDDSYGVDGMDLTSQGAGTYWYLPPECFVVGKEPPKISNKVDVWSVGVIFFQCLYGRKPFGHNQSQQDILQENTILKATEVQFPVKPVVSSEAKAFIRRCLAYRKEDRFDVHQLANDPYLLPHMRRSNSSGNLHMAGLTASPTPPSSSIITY
Put plainly: Inhibition of TLK1 (unknown origin) assessed as residual activity at 1000 nM by KINOMEscan analysis relative to control.

Sequence of Serine/threonine-protein kinase 16 (Homo sapiens) (O75716 whole entry): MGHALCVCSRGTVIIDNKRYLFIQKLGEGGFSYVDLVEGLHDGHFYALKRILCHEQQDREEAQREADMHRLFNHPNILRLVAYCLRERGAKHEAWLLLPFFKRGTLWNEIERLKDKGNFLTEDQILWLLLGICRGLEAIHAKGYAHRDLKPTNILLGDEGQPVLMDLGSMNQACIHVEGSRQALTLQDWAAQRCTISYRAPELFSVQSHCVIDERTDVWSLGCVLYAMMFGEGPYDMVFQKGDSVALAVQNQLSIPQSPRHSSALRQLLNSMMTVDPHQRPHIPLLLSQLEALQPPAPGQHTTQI
Sequence of Cyclin-dependent kinase 5 (Homo sapiens) (Q00535 whole entry, looked up): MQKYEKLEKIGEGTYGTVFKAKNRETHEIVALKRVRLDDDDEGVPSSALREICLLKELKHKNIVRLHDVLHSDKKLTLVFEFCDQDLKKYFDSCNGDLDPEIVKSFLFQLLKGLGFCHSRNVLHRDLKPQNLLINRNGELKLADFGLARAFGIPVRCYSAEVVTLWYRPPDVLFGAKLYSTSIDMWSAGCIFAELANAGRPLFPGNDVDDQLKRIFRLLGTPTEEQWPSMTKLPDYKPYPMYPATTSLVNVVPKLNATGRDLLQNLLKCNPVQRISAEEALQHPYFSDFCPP

On to `COc1cc2nc(C)nc(N[C@H](C)c3cccc(-c4cn[nH]c4)c3)c2cc1OC`, for which the Activity in experiment [1] amounted to 94%; in experiment [2], 88%; in [3] it was 74%; in experiment [4], 88%; in [5] it was 84%; in experiment [6], 97%. Besides, the Activity amounted to 42% in experiment [7], 100% in experiment [8] and 78% in experiment [9].
As for `COc1cc2ncnc(N[C@H](C)c3cccc4ccccc34)c2cc1OC`, the Activity was 100% in experiment [1]; 78% in [2]; 93% in experiment [3]; 96% in [4]; 100% in [5]; 83% in [6]. The values for the Activity in experiment [7], in experiment [8] and in experiment [9] were 93%, 95% and 100%, respectively.

For the origin of these results see ChEMBL document CHEMBL5678818, “Discovery of potent SOS1 inhibitors that block RAS activation via disruption of the RAS-SOS1 interaction” (Proc Natl Acad Sci U S A, 2019).
